Measured values as given in article PMC5881531 (FEBS Open Bio, 2018).
pKd: −log10 of the molar value.

Target: T1, Dihydroorotate dehydrogenase of Trypanosoma brucei (TbDHODH), FMN-free form (Trypanosoma brucei, UniProt Q57U83, A115V)
T1 construct: gene Tb927.5.3830
Assay: biochemical

T1 sequence (Q57U83 whole entry A115V): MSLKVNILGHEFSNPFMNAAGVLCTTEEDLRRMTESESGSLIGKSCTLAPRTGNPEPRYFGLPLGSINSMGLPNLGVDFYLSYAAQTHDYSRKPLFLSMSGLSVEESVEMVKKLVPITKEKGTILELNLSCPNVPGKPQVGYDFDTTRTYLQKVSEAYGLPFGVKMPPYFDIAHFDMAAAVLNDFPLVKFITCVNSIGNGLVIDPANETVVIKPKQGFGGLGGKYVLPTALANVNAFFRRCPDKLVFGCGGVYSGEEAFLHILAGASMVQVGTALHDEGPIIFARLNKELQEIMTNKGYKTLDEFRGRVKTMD

## Cc1cc2nc3c(=O)[nH]c(=O)nc-3n(C[C@H](O)[C@H](O)[C@H](O)COP(=O)(O)O)c2cc1C [FMN]
  pKd: 7.92
